# Laboratory results: patent US20040087498A1, “Modified factor VII” (Novo Nordisk Health Care AG, priority 1991, published 2004)
# Tests used:
# [1] = system: femoral artery lumen; assay: Angiographic luminal diameter after balloon angioplasty in atherosclerotic rabbits; type: in vivo, rabbit
# Procedure: The test drug delivery for the animals consisted of an initial bolus injection immediately prior to balloon angioplasty, followed by a continuous systemic infusion by osmotic pump via the internal jugular vein. The duration of the drug infusion was 3 days. The control animals received heparin, 150 U/kg IV bolus, prior to balloon angioplasty followed by saline infusion. The DEGR-FVIIa treated animals received a 1 mg/kg bolus injection followed by 50 μg/kg/hr infusion.
# For the placement of the osmotic pumps for continuous systemic infusion, anesthesia was induced in the animals as described above, and maintained throughout the procedure with additional IM injections of ketamine and Xylazine. Through a midline neck incision, the right internal jugular vein was isolated by blunt dissection and the distal end ligated. A silastic tube (PE-160) was introduced into the right internal jugular vein. A subcutanecus tunnel was created to pass the silastic tube. This tube was connected with the osmotic pump. The osmotic pump was implanted subcutaneously in the back of the rabbit. The right common carotid artery was isolated by blunt dissection and the distal end ligated. Via an arteriotomy, a 5F introducer was placed and advanced to the junction of the aortic arch. Blood was drawn for determination of hemostatic parameters, drugs and cholesterol levels. Twenty milligrams of xylocain was injected intraarterially. A control aortoilibfemoral angiogram was performed via a 5F Berman catheter positioned above the aortic bifurcation using 3-4 ml renographin injected over 3 seconds by hand.
# Following balloon dilatation, the angioplasty catheter was withdrawn and the Berman catheter reintroduced to a position 3 cm above the aortic bifurcation. To minimize spasm 20 mg of lidocaine was given intraarterially. A post procedure angiogram was performed as described above. A 1 cm grid was positioned at the level of the femoral artery to calculate the actual diameter. The catheter was then removed. The right carotid artery was ligated with 3-0 silk and the wound sutured by layers. […]
# [2] = system: tissue factor (TF) and activated Factor VII (FVIIa) mediation of vascular lesion formation; assay: Vascular lesion formation after carotid endarterectomy in baboons; type: in vivo; conditions: baboon
# Procedure: Measurements were performed for vascular lesion formation on day 30. The results in 5 treated animals were compared with the findings in 5 concurrent vehicle buffer-infused controls.
# Under halothane anesthesia and sterile operating conditions, animals labeled with autologous ^111In-platelets received intravenous infusions of DEGR-FVIIa using the tether system for continuous intravenous administration (initial bolus injection of 1 mg/kg followed by continuous intravenous infusion of 50 μg/kg/hr. The animals received surgical carotid endarterectomy, bilateral brachial artery or bilateral femoral artery Fogarty balloon catheter angioplasties.
# The DEGR-FVIIa was administered for 7 or 30 days by continuous infusions via venous catheter using the tether system. Thirty days after surgery the animals were anesthetized with halothane and underwent in situ pressure-perfusion fixation with 4% paraformaldehyde containing 0.1% glutaraldeyde for 30 min. […]
# Carotid endarterectomy was performed through a midline neck incision using the technique of Hanson et al., Hypertension 18:I170-I-176 (1991) and Krupski et al., Circulation 84:1749-1757 (1991), incorporated herein by reference. […] The endarterectomy was then performed beginning 1 cm from the divided end of the everted vessel segment and continued for a measured distance of 1 cm. […]
substance,measurement,setting,value
DEGR-Factor VIIa: Recombinant human Factor VIIa with its active site derivatized by Dansyl-L-Glu-Gly-Arg-chloromethyl Ketone (DEGRck),Mean MLD,[1]; 21 Day Measurement,1.393
same,Mean MLD,[1]; Post-PTCA Measurement,1.323
same,Mean MLD,[1]; Pre-PTCA Measurement,1.283
same,intimal area,"[2]; treated for 30 days, examined at 30 days",A similar result
same,intimal area,"[2]; treated for seven days, studied at 30 days, versus control",significantly decreased
